# Experiments:
# prostaglandin D receptor = molecular target: T1, prostaglandin D receptor (Homo sapiens, UniProt Q13258); assay: Antagonism by BW A868C of the suppression of ADP-induced human platelet aggregation; format: cell-based; settings: final concentration 1000 nmol/L, human PRP, ADP 3 μmol/L
# T1 construct: separate the supernatant (PRP, or platelet-rich plasma); endogenous in cells; host or cells: human platelets (platelet-rich plasma from healthy male donors)
# T1 sequence (Q13258 1-359): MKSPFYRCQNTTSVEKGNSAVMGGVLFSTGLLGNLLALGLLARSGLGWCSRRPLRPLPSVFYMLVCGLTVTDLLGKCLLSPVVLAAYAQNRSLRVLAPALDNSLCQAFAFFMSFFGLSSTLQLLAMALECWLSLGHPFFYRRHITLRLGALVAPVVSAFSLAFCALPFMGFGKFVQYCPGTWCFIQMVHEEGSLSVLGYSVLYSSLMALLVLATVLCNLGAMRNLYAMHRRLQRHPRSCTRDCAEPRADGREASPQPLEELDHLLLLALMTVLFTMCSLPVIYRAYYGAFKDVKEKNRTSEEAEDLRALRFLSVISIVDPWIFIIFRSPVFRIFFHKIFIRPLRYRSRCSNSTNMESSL
# Procedure: The prostaglandin D receptor selective antagonist used in the test was ((+/−)-3-benzyl-5-(6-carboxyhexyl)-1-(2-cyclohexyl-2-hydroxyethylamino)-hydantoin) (hereunder designated BW A868C) (Sigma-Aldrich Japan K.K.)
# BW A868C was diluted with ethanol to final concentrations of 0.03 μmol/L, 0.1 μmol/L, 0.3 μmol/L, 1 μmol/L, 3 μmol/L and 10 μmol/L.
# Compound No. 7 and PGD2 were diluted with ethanol to 287 nmol/L and 300 nmol/L, respectively, for subsequent use.
# Blood was taken from the cubital veins of human healthy males and sampled into a tube containing 3.13% sodium citrate. The blood sample was centrifuged at 1,000 rpm for 10 minutes at 20° C. to separate the supernatant (PRP, or platelet-rich plasma) and the residue was further centrifuged at 3,000 rpm for 10 minutes at 20° C. to separate the supernatant (PPP, or platelet-poor plasma). The platelet count of PRP was appropriately diluted with PPP to 30×10^4 platelets/μL for subsequent use.
# Platelet aggregation was measured with a platelet aggregation measuring instrument (PAM-8C; MC MEDICAL Co., LTD.) by the Born method (Nature, vol. 194, p. 927, 1962). A portion (273 μL) of PRP (for the BW A868C groups, 1 μL of BW A868C was added at varying concentrations) was preincubated at 37° C. for 3 minutes with stirring at 1,000 rpm. After the preincubation, 1 μL of ethanol or a test substance (compound No. 7: final concentration at 95.7 nmol/L; PGD2: final concentration at 1000 nmol/L) was added and the mixture was incubated at 37° C. for 3 minutes with stirring at 1000 rpm. After the incubation, 25 μL of ADP (final concentration at 3 μmol/L) was added to induce platelet aggregation and a maximum percent aggregation for 5 minutes was measured.
# BALB/c male mice [1] = assay: Mouse skin's barrier function, treatment test, TEWL (Test Example 5); format: in vivo; settings: barrier destroyed with acetone/diethyl ether; 0.01% in ethanol, 100 μL, once a day for 2 days
# Procedure: Six-week-old BALB/c male mice in groups of eight were shaven in a rostral dorsolateral area of 4 cm^2 (2 cm×2 cm) with electric clippers and the shaven area was covered for 60 seconds with an absorbent cotton (2 cm×2 cm) impregnated with a 1:1 liquid mixture of acetone and diethyl ether. This treatment for destroying the skin's barrier function was performed for 3 consecutive days on once-a-day basis. Starting on the day next to completion of the treatment for barrier destruction at day 3, a solvent (ethanol, 100 μL) or a drug dissolved in the solvent (compound No. 7, PGD2, PGF2α, or PGE1, all being at 0.01% in an amount of 100 μL) was applied to the barrier destroyed site for 2 days on once-a-day basis. On the day next to the second application of the solvent or drug, the transepidermal water loss (TEWL) at the same site was measured with Tewameter (TM210 of Courage & Khazawa, Germany) to evaluate the drug's action.
# BALB/c male mice [2] = assay: Mouse skin's barrier function, preventive test, TEWL (Test Example 6); format: in vivo; settings: cohabitation with dermatitic NC/Nga mice; 0.01% in ethanol, 100 μL, once a day for 7 days
# Procedure: Six-week-old BALB/c male mice in groups of six were shaven in a rostral dorsolateral area of 4 cm^2 (2 cm×2 cm) with electric clippers and kept in the same cage as NC/Nga mice that had developed dermatitis. From the day next to the start of cohabitation, a solvent (ethanol, 100 μL) or a drug dissolved in the solvent (compound No. 7, PGD2, PGF2α, or PGE1, all being at 0.01% in an amount of 100 μL) was applied to the shaven site for 7 days on once-a-day basis.
# On the day next to the seventh application of the solvent or drug, the transepidermal water loss (TEWL) at the same site was measured with Tewameter (TM210 of Courage & Khazawa, Germany) to evaluate the drug's action, with the solvent-applied group being used as the control group.
# human platelets = assay: Suppression of ADP-induced aggregation of human platelets; format: cell-based; settings: human platelet-rich plasma, ADP (3 μM), Born method
# Procedure: (A) Using the active ingredient of the present invention (compound No. 7) and PGD2 as a control for comparison, prostaglandin D receptor binding selectivity was determined with reference to the platelet aggregation suppressing action as the prostaglandin D receptor agonist action. 1. Human Platelet Aggregation Suppressing Action Suppression of ADP-Induced Aggregation of Human Platelets
# The test was performed on purchased platelet-rich plasma (PRP) (6×10^8 platelets/mL) and platelet aggregation was measured based on the Born method (Nature, vol. 194, p. 927, 1962). To 100 μL of PRP, 5 μL of a 1 nM-3 μM test drug solution in ethanol was added and the mixture was incubated at 37° C. for 1 minute with stirring at 1000 rpm. To the resulting mixture, 5 μL of an aggregation inducer [ADP (3 μM)] was added to induce platelet aggregation and a maximum percent aggregation (a maximum change in light transmittance that occurred within 5 minutes after the induction of platelet aggregation) was determined by an aggregometer. The percent suppression of aggregation by each test drug was calculated from the maximum percent aggregation by the test drug as relative to the maximum percent aggregation by ethanol instead of the test drug solution and IC50 values were determined from the constructed dose-response curve.
# [3] = system: Fifty-week-old BALB/c male mice; assay: Aged mouse skin's barrier function, treatment test, TEWL (Test Example 7); format: in vivo; settings: 50-week-old mice; 0.0001% in ethanol, 200 μL, once a day for 3 days
# Procedure: Fifty-week-old BALB/c male mice (eight in each group) were shaven in a rostral dorsolateral area of 4 cm^2 (2 cm×2 cm) with electric clippers. Starting on the next day, a solvent (ethanol, 200 μL) or a drug dissolved in the solvent (compound No. 7 or PGD2, each being at 0.0001% in an amount of 200 μL) was applied to the shaven site for 3 days on once-a-day basis.
# On the day next to the third application of the solvent or drug, TEWL at the same site was measured with Tewameter (TM210 of Courage & Khazawa, Germany) to evaluate the drug's action.
# guinea pig platelets = assay: Suppression of ADP-induced aggregation of guinea pig platelets; format: cell-based; settings: guinea pig platelet-rich plasma, ADP (3 μM)
# Procedure: Ten-week-old Hartley male guinea pigs were anesthetized with pentobarbital (30 mg/kg, i.p. injected) and a total of 20 mL of blood was sampled into a syringe containing 2.0 mL of 3.8% sodium citrate. The blood was immediately centrifuged at 900 rpm for 10 minutes at 20° C. to recover the supernatant PRP. By further centrifugation at 3000 rpm for 10 minutes at 20° C., the supernatant PPP was recovered. The platelet count of PRP was diluted with PPP to 30×10^4 platelets/μL for subsequent use.
# For platelet aggregation measurement, a platelet aggregation measuring instrument (PAM-8C) was employed. To 274 μL of PRP, 1 μL of a 0.287-95.7 nM test drug solution in ethanol was added and the mixture was incubated at 37° C. for 3 minutes with stirring at 1000 rpm. After the incubation, 25 μL of ADP (3 μM) was added to induce platelet aggregation and a maximum percent aggregation for 5 minutes was measured.
# The percent suppression of aggregation by each test drug was calculated from the maximum percent aggregation by the test drug as relative to the maximum percent aggregation by ethanol instead of the test drug solution and IC50 values were determined from the constructed dose-response curve.
compound,measurement,setting,value
"CCCCC[C@H](O)/C=C/[C@H]1C(=O)C[C@H](O)[C@@H]1C/C=C\CCCC(=O)O [PGD2, prostaglandin D2, reference compound]",platelet aggregation suppressing action compared with control group (ethanol),prostaglandin D receptor,significant platelet aggregation suppressing action
same,transepidermal water loss (TEWL) compared to the solvent-applied control group,BALB/c male mice [1],no significant difference from the control group
same,transepidermal water loss (TEWL) compared to the control group,BALB/c male mice [2],significant decrease in TEWL
same,IC50,human platelets,11 nM
same,transepidermal water loss (TEWL) compared to the control group,[3],no significant difference from the control group
same,IC50,guinea pig platelets,54.3 ± 23 nM
